From ChEMBL document CHEMBL1201862, “PubChem BioAssay data set” (2004)
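96-well plates; 48 h exposure; 5 concentrations. Endpoints by linear interpolation between flanking doses. Not reached: highest tested concentration assigned. GI50: concentration for 50% inhibition of growth.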 Calls of active or inactive are those of the source. Cut-off read from the data, not from the text of the source: active = GI50 up to about 1.1 µM and inactive = higher.

Assays:
Experiment in all cases: NCI tumour cell line growth inhibition, 48 h
HCC 2998 = tested on: HCC 2998
SW-620 = tested on: SW-620
A498 = tested on: A498
UACC-257 = tested on: UACC-257
IGROV-1 = tested on: IGROV-1
COLO 205 = tested on: COLO 205
XF498 = tested on: XF498
RXF 393 = tested on: RXF 393
Malme-3M = tested on: Malme-3M
SK-MEL-28 = tested on: SK-MEL-28
SF-268 = tested on: SF-268
HCT-116 = tested on: HCT-116
RPMI-8226 = tested on: RPMI-8226
UO-31 = tested on: UO-31
SF-539 = tested on: SF-539
SN12C = tested on: SN12C
HOP-92 = tested on: HOP-92
DMS-114 = tested on: DMS-114
M19-MEL = tested on: M19-MEL
TK-10 = tested on: TK-10

SMILES	GI50 (HCC 2998)	GI50 (SW-620)	GI50 (A498)	GI50 (UACC-257)	GI50 (IGROV-1)	GI50 (COLO 205)	GI50 (XF498)	GI50 (RXF 393)	GI50 (Malme-3M)	GI50 (SK-MEL-28)	GI50 (SF-268)	GI50 (HCT-116)	GI50 (RPMI-8226)	GI50 (UO-31)	GI50 (SF-539)	GI50 (SN12C)	GI50 (HOP-92)	GI50 (DMS-114)	GI50 (M19-MEL)	GI50 (TK-10)
COc1cc(/C=C/C(=O)Oc2ccc(NC(C)=O)cc2)ccc1C(=O)O/C=C/c1ccccc1	> 100 µM (inactive)	> 100 µM (inactive)	> 100 µM (inactive)	> 100 µM (inactive)	> 100 µM (inactive)	> 100 µM (inactive)	> 100 µM (inactive)	> 100 µM (inactive)	> 100 µM (inactive)	> 100 µM (inactive)	> 100 µM (inactive)	> 100 µM (inactive)	> 100 µM (inactive)	76.4 µM (inactive)	> 100 µM (inactive)	> 100 µM (inactive)	> 100 µM (inactive)	> 100 µM (inactive)	> 100 µM (inactive)	–
CC(=O)OC1CCC2(C)C(CCC3C2CCC2(C)C(c4ccc(=O)oc4)C(OC(C)=O)CC32O)C1 (centres undefined)	0.0269 µM (active)	0.0148 µM (active)	0.0156 µM (active)	0.023 µM (active)	0.0173 µM (active)	0.0288 µM (active)	0.0244 µM (active)	0.0125 µM (active)	0.0125 µM (active)	0.0277 µM (active)	0.0144 µM (active)	0.0157 µM (active)	0.0148 µM (active)	0.0156 µM (active)	0.0125 µM (active)	0.0162 µM (active)	0.0195 µM (active)	–	–	–
O=C(O)C1CCCCN1c1ccccc1[N+](=O)[O-] (centres undefined)	> 100 µM (inactive)	> 100 µM (inactive)	–	> 100 µM (inactive)	> 100 µM (inactive)	–	> 100 µM (inactive)	> 100 µM (inactive)	> 100 µM (inactive)	–	> 100 µM (inactive)	> 100 µM (inactive)	> 100 µM (inactive)	> 100 µM (inactive)	> 100 µM (inactive)	> 100 µM (inactive)	> 100 µM (inactive)	> 100 µM (inactive)	> 100 µM (inactive)	> 100 µM (inactive)
CCC(C(=O)O)c1ccc(OC)cc1 (centres undefined)	> 100 µM (inactive)	> 100 µM (inactive)	> 100 µM (inactive)	> 100 µM (inactive)	> 100 µM (inactive)	> 100 µM (inactive)	> 100 µM (inactive)	> 100 µM (inactive)	> 100 µM (inactive)	> 100 µM (inactive)	> 100 µM (inactive)	> 100 µM (inactive)	> 100 µM (inactive)	> 100 µM (inactive)	> 100 µM (inactive)	> 100 µM (inactive)	> 100 µM (inactive)	> 100 µM (inactive)	> 100 µM (inactive)	> 100 µM (inactive)
COc1ccc(C[C@H](N)C(=O)N2C[C@H](CO)C[C@H](n3ccc(=O)[nH]c3=O)C2)cc1	> 100 µM (inactive)	> 100 µM (inactive)	–	–	> 100 µM (inactive)	> 100 µM (inactive)	–	> 100 µM (inactive)	> 100 µM (inactive)	> 100 µM (inactive)	> 100 µM (inactive)	> 100 µM (inactive)	> 100 µM (inactive)	> 100 µM (inactive)	> 100 µM (inactive)	> 100 µM (inactive)	> 100 µM (inactive)	> 100 µM (inactive)	> 100 µM (inactive)	> 100 µM (inactive)
O=C=C=P(c1ccccc1)(c1ccccc1)c1ccccc1	61.5 µM (inactive)	> 100 µM (inactive)	–	27.8 µM (inactive)	41.9 µM (inactive)	23.7 µM (inactive)	29 µM (inactive)	92.5 µM (inactive)	30.6 µM (inactive)	> 100 µM (inactive)	69.2 µM (inactive)	34.4 µM (inactive)	27.3 µM (inactive)	> 100 µM (inactive)	> 100 µM (inactive)	> 100 µM (inactive)	16.1 µM (inactive)	22.8 µM (inactive)	27.1 µM (inactive)	3.46 µM (inactive)
